pIC50: −log10 of the molar value.
Assays:
[1] = target: Transient receptor potential cation channel subfamily A member 1 (Homo sapiens, UniProt O75762); assay: Antagonist activity at human wildtype TRPA1 channel expressed in CHO-K1 cells tagged with GCaMP6 by measuring calcium flux measured after […] by FLIPR tetra analysis; type: cell-based
[2] = target: Transient receptor potential cation channel subfamily A member 1 (Rattus norvegicus, UniProt Q6RI86); assay: Antagonist activity at rat TRPA1 channel expressed in CHO-K1 cells tagged with GCaMP6 by measuring calcium flux measured after 10 mins by FLIPR tetra analysis; type: cell-based
Transient receptor potential cation channel subfamily A member 1 (Rattus norvegicus, UniProt Q6RI86), sequence (Q6RI86 whole entry): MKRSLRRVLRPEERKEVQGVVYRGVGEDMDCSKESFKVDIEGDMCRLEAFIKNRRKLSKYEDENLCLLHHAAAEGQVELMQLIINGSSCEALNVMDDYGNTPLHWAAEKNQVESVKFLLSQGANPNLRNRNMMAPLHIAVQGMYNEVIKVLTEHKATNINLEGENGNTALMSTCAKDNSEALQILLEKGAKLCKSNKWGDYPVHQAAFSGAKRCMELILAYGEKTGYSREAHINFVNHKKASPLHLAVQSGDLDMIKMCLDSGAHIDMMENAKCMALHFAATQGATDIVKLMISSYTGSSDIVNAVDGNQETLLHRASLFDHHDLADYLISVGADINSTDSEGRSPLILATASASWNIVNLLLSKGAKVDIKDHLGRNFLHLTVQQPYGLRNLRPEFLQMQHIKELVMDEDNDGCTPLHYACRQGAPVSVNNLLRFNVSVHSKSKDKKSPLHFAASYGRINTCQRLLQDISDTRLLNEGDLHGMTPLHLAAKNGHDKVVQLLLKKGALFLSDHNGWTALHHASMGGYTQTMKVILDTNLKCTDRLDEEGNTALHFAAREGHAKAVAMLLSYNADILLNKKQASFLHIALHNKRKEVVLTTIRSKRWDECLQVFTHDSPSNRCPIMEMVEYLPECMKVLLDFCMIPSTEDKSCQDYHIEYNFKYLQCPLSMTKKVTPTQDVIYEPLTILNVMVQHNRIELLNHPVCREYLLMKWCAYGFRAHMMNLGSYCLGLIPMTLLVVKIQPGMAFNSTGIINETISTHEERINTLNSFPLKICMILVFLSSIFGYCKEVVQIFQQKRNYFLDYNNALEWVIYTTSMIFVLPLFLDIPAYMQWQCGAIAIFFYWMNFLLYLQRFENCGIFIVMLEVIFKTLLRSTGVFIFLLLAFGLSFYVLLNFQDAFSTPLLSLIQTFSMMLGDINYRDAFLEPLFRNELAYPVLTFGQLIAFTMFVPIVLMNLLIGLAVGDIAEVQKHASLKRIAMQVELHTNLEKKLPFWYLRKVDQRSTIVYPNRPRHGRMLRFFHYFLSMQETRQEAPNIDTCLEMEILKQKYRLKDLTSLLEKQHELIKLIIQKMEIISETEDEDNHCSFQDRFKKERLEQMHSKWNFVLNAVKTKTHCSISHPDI

[3] = Mutagenecity in Salmonella typhimurium by Ames test; type: toxicity; conditions: salmonella sp.
[4] = Lipophilicity, logD of compound; type: physicochemical; conditions: octanol/water

Transient receptor potential cation channel subfamily A member 1 (Homo sapiens, UniProt O75762), sequence (O75762 whole entry): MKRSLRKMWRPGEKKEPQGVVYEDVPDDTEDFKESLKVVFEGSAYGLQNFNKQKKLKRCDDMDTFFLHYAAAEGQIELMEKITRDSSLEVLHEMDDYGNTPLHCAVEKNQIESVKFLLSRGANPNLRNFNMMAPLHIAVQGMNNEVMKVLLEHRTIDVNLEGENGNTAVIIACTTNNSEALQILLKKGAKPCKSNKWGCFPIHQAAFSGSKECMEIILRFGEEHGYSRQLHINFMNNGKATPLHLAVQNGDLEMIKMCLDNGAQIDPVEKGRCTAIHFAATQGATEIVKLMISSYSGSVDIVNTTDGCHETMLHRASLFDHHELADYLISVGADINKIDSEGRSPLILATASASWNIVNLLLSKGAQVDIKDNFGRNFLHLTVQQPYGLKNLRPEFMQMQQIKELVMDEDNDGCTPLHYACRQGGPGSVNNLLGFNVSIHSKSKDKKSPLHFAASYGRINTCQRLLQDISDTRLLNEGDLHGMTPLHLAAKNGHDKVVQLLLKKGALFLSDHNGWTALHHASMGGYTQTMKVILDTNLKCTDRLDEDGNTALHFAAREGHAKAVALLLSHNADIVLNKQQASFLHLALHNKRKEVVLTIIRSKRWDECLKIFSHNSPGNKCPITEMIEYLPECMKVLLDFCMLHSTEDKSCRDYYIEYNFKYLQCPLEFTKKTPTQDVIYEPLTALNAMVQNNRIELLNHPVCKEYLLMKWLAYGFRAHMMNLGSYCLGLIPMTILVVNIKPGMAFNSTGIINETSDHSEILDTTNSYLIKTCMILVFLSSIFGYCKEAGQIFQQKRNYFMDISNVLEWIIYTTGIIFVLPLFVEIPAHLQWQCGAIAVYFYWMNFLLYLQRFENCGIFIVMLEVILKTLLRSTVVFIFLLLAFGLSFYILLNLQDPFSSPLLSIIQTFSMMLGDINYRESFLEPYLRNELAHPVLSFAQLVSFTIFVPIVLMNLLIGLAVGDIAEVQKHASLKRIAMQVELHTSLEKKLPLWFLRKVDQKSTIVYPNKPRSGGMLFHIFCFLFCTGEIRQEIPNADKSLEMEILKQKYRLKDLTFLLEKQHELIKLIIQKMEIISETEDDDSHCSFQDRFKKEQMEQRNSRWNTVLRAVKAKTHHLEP

Structure (SMILES) | pIC50 [1] | pIC50 [2] | Activity [3] | logD [4]
Cc1cc2[nH]ncc2cc1-c1ccccc1C(F)(F)F | 7.85 |  |  | 
COCCCOc1cccc([C@H]2NC(=S)Nc3c2oc2ncccc32)c1 | 7.17 |  |  | 
Cn1c(=O)c2c(CC(=O)Nc3nc(-c4ccc(F)c(C(F)(F)F)c4F)cs3)csc2n(C)c1=O | 5.17 |  |  | 
O[C@]1(C(F)(F)F)CCCC[C@H]1Cc1ccc(Cl)cn1 |  | < 4.60 |  | 
N#Cc1ccc(N[C@@H]2CCCC[C@]2(O)C(F)(F)F)cc1 |  | 5.89 | Non-Toxic | 
O[C@]1(C(F)(F)F)CCCC[C@H]1Nc1ccc(Cl)cc1 |  | 6.93 | Toxic | 
O=C1c2ccc(F)cc2CN1[C@@H]1CCCC[C@]1(O)C(F)(F)F |  |  |  | 2.6
CN(c1ccc(F)cc1)[C@@H]1CCCC[C@]1(O)C(F)(F)F |  | 4.68 |  | 3.9
CN([C@@H]1CCCC[C@]1(O)C(F)(F)F)S(=O)(=O)c1ccc(F)cc1 |  | 4.80 |  | 3.1
O=C(N[C@@H]1CCCC[C@]1(O)C(F)(F)F)c1ccc(F)cc1 |  | 4.82 |  | 
C#CC(CC)(CC)NC(=O)c1cccnc1NC1CC(F)(F)C1 | 9.00 |  |  | 
N#Cc1cc(C[C@@H]2CCCC[C@]2(O)C(F)(F)F)cs1 |  | 6.21 |  | 3.2
O[C@]1(C(F)(F)F)CCCC[C@H]1Nc1cccc(F)c1 |  | 6.02 | Non-Toxic | 
O[C@]1(C(F)(F)F)CCCC[C@H]1N1CCc2cc(F)ccc21 |  | 5.00 |  | 3.9
O[C@]1(C(F)(F)F)CCCC[C@H]1Nc1ccc(Cl)c(F)c1 |  | 6.70 | Non-Toxic | 
O[C@]1(C(F)(F)F)CCCC[C@H]1Nc1ccc(F)cn1 |  | 5.20 | Non-Toxic | 
O[C@]1(C(F)(F)F)CCCC[C@H]1Nc1ccc(Cl)c(Cl)c1 |  | 6.19 | Non-Toxic | 3.8
O[C@]1(C(F)(F)F)CCCC[C@H]1Nc1ccc(F)c(Cl)c1 |  | 6.17 | Non-Toxic | 3.4
O[C@]1(C(F)(F)F)CCCC[C@H]1Cc1ccncc1 |  | 5.28 |  | 
O[C@]1(C(F)(F)F)CCCC[C@H]1Cc1cncc(Cl)c1 |  | < 4.60 |  | 

From ChEMBL document CHEMBL5316309, “Discovery of BAY-390, a Selective CNS Penetrant Chemical Probe as Transient Receptor Potential Ankyrin 1 (TRPA1) Antagonist” (J Med Chem, 2023)
